Measurements: patent US10369340B2, “Device and method for sustained release of low water solubility therapeutic agent in solubilizer” (N[…], INC., priority 2013, dated 2019)

Experiments:
[1] = cited from earlier work
[2] = solubility of testosterone in water and in ethanol; format: physicochemical; conditions: ethanol relative to water
Description: During use, IDD 100 can be used to administer API 200 by inserting IDD 100 into an area of a human anatomy, including for example, subcutaneously. With IDD 100 inserted into the desired anatomical area, portions of solubilizer 210 (with dissolved API 200) that are small enough to pass through channeled member 130 can be released over time into the area of the human anatomy or for systemic circulation. In certain embodiments, the solubility enhancement of API 200 and solubilizer 210 can range from approximately 2×, 3×, 4×, 5×, 6×, 7×, 8×, 9×, 10×, 11×, 12×, 13×, 14×, 15×, 16×, 17×, 18×, 19×, 20×, 21×, 22×, 23×, 24×, 25×, 26×, 27×, 28×, 29×, 30× or higher. In particular embodiments, the solubility enhancement can be up to 1000× and higher.

C[C@]12CC[C@H]3[C@@H](CCC4=CC(=O)CC[C@@]43C)[C@@H]1CC[C@@H]2O [testosterone]
solubility in ethanol ([1]; ethanol): approximately 750 mg/ml
native water solubility ([1]; water): 35 µg/mL
solubility enhancement (increase, ethanol vs water) [2]: 20,000 ×
